Counter-ions that a name gives are not always drawn.
Tests used:
in vitro = conditions: guinea pig, Permeability Coefficient (cm/hr) ± SEM, saturated dodecanol, Example 13
[1] = for amount of higher alcohol necessary to reach a small permanent visible excess: H^3-mannitol in 30% v/v aqueous ethanol
Experimental: Trace amounts of H^3 -mannitol were added to 10 ml aliquots of a 33% (v/v) ethanol/water solution. The saturating amount of octanol for this solution was determined to be 45 μl per aliquot. Varying amounts of octanol were added to each aliquot as shown below. The aliquots were warmed and kept at 32° C. until use.

Compound | amount of higher alcohol necessary to reach a small permanent visible excess [1] | further results
COc1ccc([C@@H]2Sc3ccccc3N(CCN(C)C)C(=O)[C@@H]2OC(C)=O)cc1 [Diltiazem Hydrochloride] |  | Papp at 8 h (in vitro; 20% v/v ethanol): 0.336 nm/s; Papp at 8 h (in vitro; 30% v/v ethanol): 0.925 nm/s; Papp at 8 h (in vitro; 40% v/v ethanol): 3.19 nm/s; Papp at 8 h (in vitro; 50% v/v ethanol): 2.94 nm/s; Papp at 8 h (in vitro; no ethanol): 0.0764 nm/s
CCCCCCCCCCCCCCCCO [hexadecanol] | ~0.1 mg/mL | 
CCCCCCCCCCCCCCCCCCO [octadecanol] | ~0.1 mg/mL | 
CCCCCCCCCCCCCO [tridecanol] | ~4 mg/mL | 

Further lines, with some results ahead:

amount of higher alcohol necessary to reach a small permanent visible excess [1] | Compound | further results
~10 μl/ml | CCCCCCCCCCO [decanol] | 
~10 μl/ml | CCCCCCCCCCCCO [dodecanol] | 
~20 μl/ml | CCCCCCCCO [octanol] | saturating amount of octanol ([1]; 10 ml aliquots of 33% (v/v) ethanol/water with trace H^3-mannitol): 45 μl per aliquot
100 μl/ml | CCCCCO [pentanol] | 
~4 mg/mL | CCCCCCCCCCCCCCO [tetradecanol] | 

From patent US5149719A, “Composition for transdermal penetration of medicaments” (priority 1990, dated 1992)
